Assay results reported in patent US6946480B2, “Glutaminyl based DPIV inhibitors” (priority 2002, dated 2005).

How the values were obtained:
diabetic Zucker rats = test: Dose escalation study with oral glucose tolerance test in fatty Zucker rats; assay type: in vivo, Zucker rats (fa/fa); conditions: for effect on glucose tolerance (OGTT): 2 g/kg glucose
Procedure: N=30 male Zucker rats (fa/fa), mean age 11 weeks (5-12 weeks), mean body weight 350 g (150-400 g), were purchased from Charles River (Sulzfeld, Germany). After delivery they were kept for >12 weeks until nearly all fatty Zucker rats had the characteristics of manifest diabetes mellitus. A group of N=8 animals were recruited for testing three escalating doses of glutaminyl pyrrolidine vs. placebo (saline).
Animals were single-caged under standardized conditions with controlled temperature (22±2° C.) on a 12/12 hours light/dark cycle (light on at 06:00 AM). Sterile standard pelleted chow (ssniff® Soest, Germany) and tap water acidified with HCl were allowed ad libitum.
Fatty Zucker rats of 24-31 weeks (mean: 25 weeks) age, adapted to the housing conditions, were well prepared for the study.
Catheters were implanted into the carotid artery of fatty Zucker rats under general anaesthesia (i.p. injection of 0.25 ml/kg b.w. Rompune® [2%], BayerVital, Germany and 0.5 ml/kg b.w. Ketamin 10, Atarost GmbH & Co., Twistringen, Germany). The animals were allowed to recover for one week. The catheters were flushed with heparin-saline (100 IU/ml) three times per week.
Placebo (1 ml saline, 0.154 mol/l) or escalating doses of glutaminyl pyrrolidine (5, 15 and 50 mg/kg b.w.) were administered to groups of N=8 fatty Zucker rats. 375 mg of glutaminyl pyrrolidine were dissolved in 1000 μl DMSO (E. Merck, Darmstadt; Germany [Dimethyl sulfoxide p.a.]). 10 ml saline were added and 1 ml aliquots, each containing 34.09 mg of glutaminyl pyrrolidine, were stored at −20° C. For preparation of the test substance, dose dependent aliquots were diluted in saline.
After overnight fasting, placebo or test substance were administered to the fatty Zucker rats via feeding tube orally (15 G, 75 mm; Fine Science Tools, Heidelberg, Germany) at −10 min An oral glucose tolerance test (OGTT) with 2 g/kg b.w. glucose (40% solution, B. Braun Melsungen, Melsungen, Germany) was administered at ±0 min via a second feeding tube. Venous blood samples from the tail veins were collected at −30 min, −15 min, ±0 min and at 5, 10, 15, 20, 30, 40, 60, 90 and 120 min into 20 μl glass capillaries, which were placed in standard tubes filled with 1 ml solution for blood glucose measurement.
Glucose levels were measured using the glucose oxidase procedure (Super G Glucose analyzer; Dr. Müller Gerätebau, Freital, Germany).
Statistical evaluations and graphics were performed with PRISM® 3.02 (GraphPad Software, Inc.). All parameters were analysed in a descriptive manner including mean and SD.
N=30 male Zucker rats (fa/fa), mean age 11 weeks (5-12 weeks), mean body weight 350 g (150-400 g), were purchased from Charles River (Sulzfeld, Germany). […]

[1] = Plasma stability (half-life of inhibitory potency in human plasma); assay type: in vitro ADME
Procedure: In order to investigate the stability of glutaminyl pyrrolidine or glutaminyl thiazolidine in human plasma, the activity of DPIV in plasma was determined at a defined time. The average DPIV activity in human plasma was determined as 43.69 U/ml. In the working solution, the plasma was diluted in 0.9% NaCl to fix the DPIV activity level at 25 U/ml.
Plasma and glutaminyl pyrrolidine or glutaminyl thiazolidine in different concentrations (5*10^−5, 2.5*10^−5, 1.25*10^−5M in plasma) were incubated at 37° C. At defined time points samples were taken using a pipette roboter (Gilson 215, Liquid handler, Gilson) and transferred in a microtiter plate containing 5*10^−5M glycylprolylaminomethylcoumarine in 0.9% NaCl+015% Brij per well. After 6 min the reaction was stopped by addition of isoleucylthiazolidine (5*10^−5M in 0.9% NaCl solution).
Fluorescence measurement was performed against 0.9% NaCl in plasma (reference standard) using a plate reader (HTS7000plus, Applied Biosystems, Weiterstadt, Germany). The half-life of the inhibitory potency of glutaminyl pyrrolidine or glutaminyl thiazolidine was calculated by plotting the enzyme activity versus reaction time.

half-life of the inhibitory potency in human plasma ([1]; 37° C., 5*10^−5, 2.5*10^−5, 1.25*10^−5M): no half-time could be determined | stability in human plasma ([1]; over 22 hours): stable in human plasma over 22 hours
SMILES: NC(=O)CC[C@H](N)C(=O)N1CCCC1 [glutaminyl pyrrolidine]
effect on glucose tolerance (OGTT) (diabetic Zucker rats; 5 mg/kg b.w. oral): limited improvement of glucose tolerance | effect on blood glucose levels over escalating doses (OGTT) (diabetic Zucker rats; 5 mg/kg, 15 mg/kg and 50 mg/kg b.w. oral): dose dependent lowering of elevated blood glucose levels | effect on glucose tolerance (OGTT) (diabetic Zucker rats; 15 mg/kg b.w. oral): Significant lowering of elevated blood glucose levels | effect on glucose tolerance (OGTT) (diabetic Zucker rats; 50 mg/kg b.w. oral): Significant lowering of elevated blood glucose levels
